From paper PMC9502272, “A Metabolomics Approach for Predicting OATP1B-Type Transporter-Mediated Drug–Drug Interaction Liabilities” (Pharmaceutics, 2022)

Molecular target: T1, Oatp1b2 (Mus musculus, UniProt Q9JJL3)
T1 sequence (Q9JJL3 1-689): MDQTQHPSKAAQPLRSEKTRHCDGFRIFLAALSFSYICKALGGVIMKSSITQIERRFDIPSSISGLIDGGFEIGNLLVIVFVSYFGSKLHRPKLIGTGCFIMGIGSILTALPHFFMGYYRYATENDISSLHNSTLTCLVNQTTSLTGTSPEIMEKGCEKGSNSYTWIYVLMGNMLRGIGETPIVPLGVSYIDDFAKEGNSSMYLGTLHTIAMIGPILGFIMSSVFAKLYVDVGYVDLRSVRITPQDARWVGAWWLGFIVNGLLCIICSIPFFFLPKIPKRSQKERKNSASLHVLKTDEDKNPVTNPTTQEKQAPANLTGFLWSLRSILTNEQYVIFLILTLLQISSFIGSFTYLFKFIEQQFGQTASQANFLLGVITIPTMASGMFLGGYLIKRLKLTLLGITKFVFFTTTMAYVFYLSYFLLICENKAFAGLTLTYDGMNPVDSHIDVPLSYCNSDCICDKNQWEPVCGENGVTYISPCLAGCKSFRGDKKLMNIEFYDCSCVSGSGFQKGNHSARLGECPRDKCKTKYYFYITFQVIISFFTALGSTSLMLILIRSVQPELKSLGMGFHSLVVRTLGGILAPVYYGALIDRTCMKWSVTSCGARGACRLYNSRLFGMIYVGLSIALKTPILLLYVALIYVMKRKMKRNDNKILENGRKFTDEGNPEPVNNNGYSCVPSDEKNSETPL
Test: Untargeted metabolomics of plasma from untreated wild-type and Oatp1b2(−/−) mice
Details: for Fold of Change KO/WT: plasma of untreated Oatp1b2-deficient (KO) vs wild-type (WT) mice, semi-quantitative, positive = higher in KO, n = 6 per group; for Mean value KO: plasma of untreated Oatp1b2-deficient mice; for Mean value KO / Mean value WT: raw area counts rescaled to median = 1; for Mean value WT: plasma of untreated wild-type mice

| Fold of Change KO/WT | Mean value KO | Mean value WT | Structure (SMILES) |
| --- | --- | --- | --- |
| 2.16 | 1.45 | .672 | CCCCCCCC/C=C\CCCCCC/C=C\OC[C@@H](O)COP(=O)(O)OCCN [1-(1-enyl-oleoyl)-GPE (P-18:1)] |
| 1.46 | 1.30 | .891 | CCCCC/C=C\C/C=C\C/C=C\C/C=C\CCCC(=O)O[C@H](CO/C=C\CCCCCCCCCCCCCC)COP(=O)([O-])OCC[N+](C)(C)C [1-(1-enyl-palmitoyl)-2-arachidonoyl-GPC (P-16:0/20:4)] |
| 1.34 | 1.16 | .862 | CCCCC/C=C\C/C=C\CCCCCCCC(=O)O[C@H](CO/C=C\CCCCCCCCCCCCCC)COP(=O)(O)OCCN [1-(1-enyl-palmitoyl)-2-linoleoyl-GPE (P-16:0/18:2)] |
| 1.32 | 1.18 | .895 | CCCCCCCC/C=C\CCCCCCCC(=O)O[C@H](CO/C=C\CCCCCCCCCCCCCC)COP(=O)(O)OCCN [1-(1-enyl-palmitoyl)-2-oleoyl-GPE (P-16:0/18:1)] |
| 1.79 | 1.30 | .725 | CCCCCCCCCCCCCC/C=C\OC[C@@H](O)COP(=O)(O)OCCN [1-(1-enyl-palmitoyl)-GPE (P-16:0)] |
| 1.33 | 1.10 | .828 | CCCCC/C=C\C/C=C\C/C=C\C/C=C\CCCC(=O)O[C@H](CO/C=C\CCCCCCCCCCCCCCCC)COP(=O)(O)OCCN [1-(1-enyl-stearoyl)-2-arachidonoyl-GPE (P-18:0/20:4)] |
| 1.80 | 1.17 | .652 | CCCCC/C=C\C/C=C\C/C=C\C/C=C\CCCC(=O)OC[C@@H](O)COP(=O)(O)O [1-arachidonoyl-GPA (20:4)] |

More lines, now with the values behind:

| Structure (SMILES) | Fold of Change KO/WT | Mean value KO | Mean value WT |
| --- | --- | --- | --- |
| O=C(O)[C@H]1OC(O)[C@H](O)[C@@H](O)[C@@H]1O (mixture of isomers) [glucuronate] | 3.17 | 1.59 | .500 |
| CCCCCCCCCCCCCCCC(=O)OC[C@H](COP(=O)([O-])OCC[N+](C)(C)C)OC(=O)CCCCCCCCCCCCCCC [1,2-dipalmitoyl-GPC (16:0/16:0)] | 1.31 | 1.18 | .901 |
| CCCCCCCCCCCCCCCC(=O)OC[C@H](COP(=O)(O)OCCN)OC(=O)CCCCCCCCCCCCCCC [1,2-dipalmitoyl-GPE (16:0/16:0)] | 2.02 | 1.34 | .664 |
| CCCCC/C=C\C/C=C\C/C=C\C/C=C\CCCC(=O)O[C@H](CO/C=C\CCCCCCCCCCCCCC)COP(=O)(O)OCCN [1-(1-enyl-palmitoyl)-2-arachidonoyl-GPE (P-16:0/20:4)] | 1.34 | 1.13 | .839 |
| CCCCCCCCCCCCCC/C=C\OC[C@H](COP(=O)([O-])OCC[N+](C)(C)C)OC(=O)CCCCCCCCCCCCCCC [1-(1-enyl-palmitoyl)-2-palmitoyl-GPC (P-16:0/16:0)] | 1.24 | 1.14 | .919 |
| CCCCCCCCCCCCCCC=COCC(O)COP(=O)([O-])OCC[N+](C)(C)C (stereo not drawn) [1-(1-enyl-palmitoyl)-GPC (P-16:0)] | 1.59 | 1.26 | .795 |
| CCCCCCCCCCCCCCCC/C=C\OC[C@@H](O)COP(=O)(O)OCCN [1-(1-enyl-stearoyl)-GPE (P-18:0)] | 1.72 | 1.28 | .747 |
| CCCCC/C=C\C/C=C\C/C=C\C/C=C\CCCC(=O)OC[C@@H](O)COP(=O)([O-])OCC[N+](C)(C)C [1-arachidonoyl-GPC (20:4n6)] | 1.63 | 1.27 | .775 |
| CCCCC/C=C\C/C=C\C/C=C\C/C=C\CCCC(=O)OC[C@@H](O)COP(=O)(O)OCCN [1-arachidonoyl-GPE (20:4n6)] | 1.49 | 1.20 | .803 |
